Assay results as given in patent EP0543245A1, “Renin inhibiting amino acid derivatives” (F. HOFFMANN-LA ROCHE AG, priority 1991, dated 1993).
pIC50: −log10 of the molar value.

Biological target: T1, Human-Renin (Homo sapiens, UniProt P00797)
T1 sequence (P00797 67-406): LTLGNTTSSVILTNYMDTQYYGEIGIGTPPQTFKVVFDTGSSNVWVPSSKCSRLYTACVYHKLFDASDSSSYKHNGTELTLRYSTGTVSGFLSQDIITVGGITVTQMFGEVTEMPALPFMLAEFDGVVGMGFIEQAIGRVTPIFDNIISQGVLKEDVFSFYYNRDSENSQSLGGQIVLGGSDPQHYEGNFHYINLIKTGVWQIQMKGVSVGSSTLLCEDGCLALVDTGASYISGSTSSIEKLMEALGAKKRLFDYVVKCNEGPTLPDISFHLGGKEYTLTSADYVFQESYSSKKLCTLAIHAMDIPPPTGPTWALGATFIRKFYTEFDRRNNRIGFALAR
Experiment: In vitro test with pure human renin
Assay type: biochemical
Details: human tetradecapeptide renin substrate (hTD), pH 7.4, 3 h at 37°C vs 4°C, angiotensin I measured by RIA, read-out: IC₅₀-Werte
Experimental: In vitro-Test mit reinem Human-Renin
Der Test wird in Eppendorf Röhrchen durchgeführt. Die Inkubationsmischung besteht aus (1) 100 µl Human-Renin in Puffer A (0,1M Natriumphosphatlösung, pH 7.4, enthaltend 0,1% Rinderserumalbumin, 0,1% Natriumazid und 1 mM Aethylendiamintetraessigsäure), genügend für eine Renin-Aktivität von 2-3 ng Angiotensin I/ ml/Std.; (2) 145 µl Puffer A; (3) 30 µl von 10 µM humanem Tetradekapeptid-Reninsubstrat (hTD) in 10 mM Salzsäure; (4) 15 µl Dimethylsulfoxid mit bzw. ohne Hemmer und (5) 10 µl einer 0,03 molaren Lösung von Hydroxychinolinsulfat in Wasser.
Die Proben werden drei Stunden bei 37°C bzw. 4°C in Triplikaten inkubiert. 2 x 100 µl Proben pro Versuchsröhrchen werden dann verwendet, um die Produktion von Angiotensin I via RIA (standard radioimmunoassay; Clinical Assay solid phase kit) zu messen. Kreuzreaktivitäten der verwendeten Antikörper im RIA sind: Angiotensin I 100%; Angiotensin II 0,0013%; hTD (Angiotensin I-Val-Ile-His-Ser-OH) 0,09%. Die Produktion von Angiotensin I wird durch die Differenz zwischen dem Versuch bei 37°C und demjenigen bei 4°C bestimmt.
Folgende Kontrollen werden mitgeführt: • (a) Inkubation von hTD-Proben ohne Renin und ohne Hemmer bei 37°C und 4°C. Die Differenz zwischen diesen beiden Werten ergibt den Grundwert der Angiotensin I-Produktion. • (b) Inkubation von hTD-Proben mit Renin, jedoch ohne Hemmer bei 37°C und 4°C. Die Differenz zwischen diesen Werten ergibt den Maximalwert der Angiotensin I-Produktion.
In jeder Probe wird von der ermittelten Angiotenin I-Produktion der Grundwert der Angiotensin I-Produktion abgezogen. Die Differenz zwischen dem Maximalwert und dem Grundwert ergibt den Wert der maximalen Substrathydrolyse (=100%) durch Renin.
Die Resultate werden als IC₅₀-Werte angegeben, welche diejenige Konzentration des Hemmers bezeichnen, bei welcher die enzymatische Aktivität um 50% gehemmt wird. Die IC₅₀-Werte werden aus einer linearen Regressionskurve aus einem logit-log plot ermittelt.

`C=CCC(C(=O)N[C@@H](CC1CCCCC1)[C@@H](O)[C@@H](O)C1CC1)c1nnc2c(CCC)nc(-c3cccnc3)cn12` (stereo partly drawn) [G, (R,S)-α-Allyl-N-[(1S,2R,3S)-1-(cyclohexylmethyl)3-cyclopropyl-2,3-dihydroxypropyl]-8-propyl-6-(3-pyridyl)-s-triazolo[4,3-a]pyrazin-3-acetamid] was tested. Which pIC50 did it give?
The pIC50 was 7.80.

`O=C(N[C@@H](CC1CCCCC1)[C@@H](O)[C@@H](O)C1CC1)C(Cc1cccnc1)c1nnc2c(C3CC3)nc(-c3cccnc3)cn12` (single isomer, unassigned) [A] was tested. Which pIC50 did it give?
Its pIC50 is 7.29.

With `O=C(N[C@@H](CC1CCCCC1)[C@@H](O)[C@@H](O)C1CC1)C(Cc1cccnc1)c1nnc2c(CC3CC3)nc(-c3cccnc3)cn12` (single isomer, unassigned) [C] as the compound, how does the pIC50 read?
The pIC50 was 7.77.

With `O=C(N[C@@H](CC1CCCCC1)[C@@H](O)[C@@H](O)C1CC1)C(Cc1cscn1)c1nnc2c(C3CC3)nc(-c3cccnc3)cn12` (single isomer, unassigned) [B] as the compound, how does the pIC50 read?
Its pIC50 is 8.70.

`O=C(N[C@@H](Cc1ccccc1)[C@@H](O)[C@@H](O)C1CC1)C(Cc1cccnc1)c1nnc2c(C3CC3)nc(-c3cccnc3)cn12` (stereo partly drawn) [E, (R,S)-N-[(1S,2R,3S)-1-Benzyl-3-cyclopropyl-2,3-dihydroxypropyl]-8-cyclopropyl-6-(3-pyridyl)-α-(3-pyridylmethyl)-s-triazolo[4,3-a]pyrazin-3-acetamid] was tested. Which pIC50 did it give?
The pIC50 was 7.00.

How did the pIC50 turn out when `CC(C)Cc1nc(-c2cccnc2)nn2c(C(Cc3cccnc3)C(=O)N[C@@H](CC3CCCCC3)[C@@H](O)[C@@H](O)C3CC3)nnc12` (single isomer, unassigned) [F] was run?
The pIC50 was 6.82.

With `O=C(N[C@@H](CC1CCCCC1)[C@@H](O)[C@@H](O)C1CC1)C(Cc1cscn1)c1nnc2c(CC3CC3)nc(-c3cccnc3)cn12` (single isomer, unassigned) [D] as the compound, how does the pIC50 read?
Its pIC50 is 8.64.
